Laboratory results taken from PubChem BioAssay AID256 (DTP/NCI, 2004).
Several values for one entry are separate records, joined by “and”; a condition that tells them apart may be missing. Equal entries are not always repeated. Toxic doses and inconclusive results are not listed. How the source made its calls: active means survival T/C of 150% or more; inactive means T/C below 125% in these data.

Test system: CD2F1 mice, L1210 leukemia ip, survival T/C
Experiment: NCI In Vivo Anticancer Drug Screen. Data for tumor model L1210 Leukemia (intraperitoneal) in CD2F1 (CDF1) mice
Settings: higher = longer survival
In short: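 Transplantable tumor in mice; compound-treated vs vehicle-treated groups. Read-out = treated/control ratio of the measured endpoint.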

[1] = endpoint: mean survival time, dose: 25.0 mg/kg/injection, schedule: Q01DX009 (ip), vehicle: saline with Tween-80
[2] = endpoint: mean survival time, dose: 50.0 mg/kg/injection, schedule: Q01DX009 (ip), vehicle: saline with Tween-80
[3] = endpoint: mean survival time, dose: 100.0 mg/kg/injection, schedule: Q01DX009 (ip), vehicle: saline with Tween-80
[4] = endpoint: mean survival time, dose: 100.0 mg/kg/injection, schedule: Q04DX003 (ip), vehicle: saline with Tween-80
[5] = endpoint: mean survival time, dose: 12.5 mg/kg/injection, schedule: Q01DX009 (ip), vehicle: saline with Tween-80
[6] = endpoint: mean survival time, dose: 100.0 mg/kg/injection, schedule: Q04DX003 (ip), vehicle: saline
[7] = endpoint: mean survival time, dose: 200.0 mg/kg/injection, schedule: Q01DX009 (ip), vehicle: saline with Tween-80
[8] = endpoint: mean survival time, dose: 200.0 mg/kg/injection, schedule: Q04DX003 (ip), vehicle: saline
[9] = endpoint: mean survival time, dose: 200.0 mg/kg/injection, schedule: Q04DX003 (ip), vehicle: saline with Tween-80
[10] = endpoint: mean survival time, dose: 400.0 mg/kg/injection, schedule: Q04DX003 (ip), vehicle: saline with Tween-80
[11] = endpoint: mean survival time, dose: 200.0 mg/kg/injection, schedule: Q04DX002 (ip), vehicle: saline with Tween-80

Measured: T/C

O=C1c2cscc2C(=O)c2c(Cl)sc(Cl)c21
inactive: endpoint: mean survival time, dose: 12.5 mg/kg/injection, schedule: Q04DX003 (ip), vehicle: saline with Tween-80 96 % of control | [1] 103 % of control | endpoint: mean survival time, dose: 25.0 mg/kg/injection, schedule: Q04DX003 (ip), vehicle: saline with Tween-80 98 % of control | [2] 97 % of control | endpoint: mean survival time, dose: 50.0 mg/kg/injection, schedule: Q04DX003 (ip), vehicle: saline with Tween-80 90 % of control | [3] 91 % of control | [4] 100 % of control

O=C(NCCO)c1cccnc1
inactive: endpoint: mean survival time, dose: 75.0 mg/kg/injection, schedule: Q04DX003 (ip), vehicle: saline sonified 103 % of control | endpoint: mean survival time, dose: 150.0 mg/kg/injection, schedule: Q04DX003 (ip), vehicle: saline sonified 97 % of control | endpoint: mean survival time, dose: 300.0 mg/kg/injection, schedule: Q04DX003 (ip), vehicle: saline sonified 97 % of control | endpoint: mean survival time, dose: 600.0 mg/kg/injection, schedule: Q04DX003 (ip), vehicle: saline sonified 102 % of control

Cc1ccc(Cc2cc(=O)[nH]c(=O)[nH]2)cc1
inactive: endpoint: mean survival time, dose: 25.0 mg/kg/injection, schedule: Q01DX009 (ip), vehicle: Klucel (hydroxypropylcellulose) (HPC) 96 % of control | endpoint: mean survival time, dose: 50.0 mg/kg/injection, schedule: Q01DX009 (ip), vehicle: Klucel (hydroxypropylcellulose) (HPC) 100 % of control | endpoint: mean survival time, dose: 100.0 mg/kg/injection, schedule: Q01DX009 (ip), vehicle: Klucel (hydroxypropylcellulose) (HPC) 94 % of control and 96 % of control

NCC1CCNCC1
inactive: endpoint: mean survival time, dose: 25.0 mg/kg/injection, schedule: Q04DX002 (ip), vehicle: saline 94 % of control | endpoint: mean survival time, dose: 50.0 mg/kg/injection, schedule: Q04DX002 (ip), vehicle: saline 97 % of control | endpoint: mean survival time, dose: 100.0 mg/kg/injection, schedule: Q04DX002 (ip), vehicle: saline 91 % of control | endpoint: mean survival time, dose: 200.0 mg/kg/injection, schedule: Q04DX002 (ip), vehicle: saline 102 % of control

NC1CC(CO)C(O)C1O (centres undefined)
inactive: endpoint: mean survival time, dose: 75.0 mg/kg/injection, schedule: Q01DX001 (ip), vehicle: saline 101 % of control | endpoint: mean survival time, dose: 150.0 mg/kg/injection, schedule: Q01DX001 (ip), vehicle: saline 103 % of control | endpoint: mean survival time, dose: 300.0 mg/kg/injection, schedule: Q01DX001 (ip), vehicle: saline 107 % of control

N#CSCc1ccccc1
inactive: [5] 100 % of control

O=C(O)c1ccc(C(=O)O)c2c(C(=O)O)ccc(C(=O)O)c12
inactive: [3] 95 % of control | [6] 97 % of control | [7] 90 % of control | [8] 96 % of control | endpoint: mean survival time, dose: 400.0 mg/kg/injection, schedule: Q04DX003 (ip), vehicle: saline 93 % of control

CC(C)(N)CO
inactive: endpoint: mean survival time, dose: 50.0 mg/kg/injection, schedule: Q01DX009 (ip), vehicle: saline 88 % of control | endpoint: mean survival time, dose: 100.0 mg/kg/injection, schedule: Q01DX009 (ip), vehicle: saline 100 % of control | endpoint: mean survival time, dose: 200.0 mg/kg/injection, schedule: Q01DX009 (ip), vehicle: saline 100 % of control

COc1cccc(N2C(=O)CSC2=S)c1
inactive: [4] 107 % of control | [9] 96 % of control | [10] 106 % of control

Nc1nc(N)c2ncn(Cc3ccccc3)c2n1
inactive: [4] 98 % of control | [9] 93 % of control | [10] 100 % of control

[I][Pt+2][I].[NH-]CC[NH-]
inactive: endpoint: mean survival time, dose: 20.0 mg/kg/injection, schedule: Q04DX003 (ip), vehicle: water 115 % of control | endpoint: mean survival time, dose: 40.0 mg/kg/injection, schedule: Q04DX003 (ip), vehicle: water 116 % of control | endpoint: mean survival time, dose: 80.0 mg/kg/injection, schedule: Q04DX003 (ip), vehicle: water 120 % of control | endpoint: mean survival time, dose: 160.0 mg/kg/injection, schedule: Q04DX003 (ip), vehicle: water 115 % of control | endpoint: mean survival time, dose: 320.0 mg/kg/injection, schedule: Q04DX003 (ip), vehicle: water 93 % of control

Oc1cc2ccccc2c(-c2c(O)c(O)cc3ccccc23)c1O
inactive: [5] 103 % of control | [1] 100 % of control and 103 % of control | [2] 103 % of control and 105 % of control | [3] 100 % of control and 109 % of control | [7] 96 % of control

CCC(C1=NC(C)(C)CC(C)O1)c1ccccc1 (centres undefined) (tested in a mixture with another compound)
inactive: [3] 102 % of control | [7] 93 % of control

NC(=O)NN=C1CCC(CC2CCCCC2)CC1 (centres undefined)
inactive: [4] 112 % of control

O=C(C[n+]1csc2ccccc21)c1ccccc1
inactive: [3] 106 % of control | [4] 97 % of control | [7] 92 % of control | [9] 106 % of control | endpoint: mean survival time, dose: 400.0 mg/kg/injection, schedule: Q01DX009 (ip), vehicle: saline with Tween-80 87 % of control | [10] 109 % of control

NC1=C(Cl)C(=O)C(N)=C(Cl)C1=O
inactive: [4] 101 % of control | [9] 101 % of control

CCC1C(C)CNC1C (centres undefined)
inactive: endpoint: mean survival time, dose: 100.0 mg/kg/injection, schedule: Q01DX001 (ip), vehicle: saline with Tween-80 100 % of control

O=C1Cc2c(nc[nH]c2=O)N1
inactive: endpoint: median survival time, dose: 50.0 mg/kg/injection, schedule: Q01DX005 (ip), vehicle: saline 101 % of control | endpoint: median survival time, dose: 100.0 mg/kg/injection, schedule: Q01DX005 (ip), vehicle: saline 97 % of control | endpoint: median survival time, dose: 200.0 mg/kg/injection, schedule: Q01DX005 (ip), vehicle: saline 92 % of control

NC(C(=O)O)C(O)c1ccc2c(c1)OCO2 (centres undefined)
inactive: [4] 98 % of control | [9] 92 % of control | [10] 95 % of control

S=C(N/N=C/c1ccccn1)Nc1ccccn1
inactive: endpoint: mean survival time, dose: 100.0 mg/kg/injection, schedule: Q04DX002 (ip), vehicle: saline with Tween-80 103 % of control | [11] 114 % of control | endpoint: mean survival time, dose: 400.0 mg/kg/injection, schedule: Q04DX002 (ip), vehicle: saline with Tween-80 91 % of control

Cc1cc(N/N=C/c2ccccn2)nc2ccccc12
inactive: endpoint: median survival time, dose: 6.25 mg/kg/injection, schedule: Q01DX009 (ip), vehicle: Klucel (hydroxypropylcellulose) (HPC) 102 % of control | endpoint: median survival time, dose: 12.5 mg/kg/injection, schedule: Q01DX009 (ip), vehicle: Klucel (hydroxypropylcellulose) (HPC) 100 % of control | endpoint: median survival time, dose: 25.0 mg/kg/injection, schedule: Q01DX009 (ip), vehicle: Klucel (hydroxypropylcellulose) (HPC) 97 % of control | endpoint: median survival time, dose: 50.0 mg/kg/injection, schedule: Q01DX009 (ip), vehicle: Klucel (hydroxypropylcellulose) (HPC) 110 % of control

CC1([CH2][Hg][Cl])Cc2ccccc2O1 (centres undefined)
inactive: endpoint: mean survival time, dose: 1.56 mg/kg/injection, schedule: Q01DX009 (ip), vehicle: saline with Tween-80 91 % of control | endpoint: mean survival time, dose: 3.13 mg/kg/injection, schedule: Q01DX009 (ip), vehicle: saline with Tween-80 94 % of control | endpoint: mean survival time, dose: 6.25 mg/kg/injection, schedule: Q01DX009 (ip), vehicle: saline with Tween-80 101 % of control

CCC(CN(C)C)C(=O)c1ccccc1 (centres undefined)
inactive: [6] 91 % of control | [11] 86 % of control | [8] 95 % of control

CN(C)Nc1cc(N)c(N=Nc2ccccc2)c(=O)[nH]1
inactive: endpoint: mean survival time, dose: 100.0 mg/kg/injection, schedule: Q01DX001 (ip), vehicle: Klucel (hydroxypropylcellulose) (HPC) 107 % of control | endpoint: mean survival time, dose: 200.0 mg/kg/injection, schedule: Q01DX001 (ip), vehicle: Klucel (hydroxypropylcellulose) (HPC) 97 % of control | endpoint: mean survival time, dose: 400.0 mg/kg/injection, schedule: Q01DX001 (ip), vehicle: Klucel (hydroxypropylcellulose) (HPC) 117 % of control

CCC1OC(OC)C=CC1=O (centres undefined)
inactive: endpoint: median survival time, dose: 12.5 mg/kg/injection, schedule: Q01DX009 (ip), vehicle: saline 100 % of control | endpoint: median survival time, dose: 25.0 mg/kg/injection, schedule: Q01DX009 (ip), vehicle: saline 102 % of control | endpoint: median survival time, dose: 50.0 mg/kg/injection, schedule: Q01DX009 (ip), vehicle: saline 105 % of control | endpoint: median survival time, dose: 100.0 mg/kg/injection, schedule: Q01DX009 (ip), vehicle: saline 102 % of control
